Measured values as given in ChEMBL document CHEMBL4732126, “Design, synthesis, and biodistribution studies of new analogues of marine alkaloids: Potent in vitro and in vivo fungicidal agents against Candida spp” (Eur J Med Chem, 2021).
In brackets after ≈: the same amount, converted by molar mass. Activity calls are given as the source filed them. The rule behind the calls is not given here.

Experiments:
Candida albicans [1] = assay: Antifungal activity against Candida albicans ATCC 10231 assessed as reduction in fungal growth incubated for 48 hrs by broth microdilution method; format: functional
Candida albicans [2] = assay: Antifungal activity against Candida albicans ATCC 18804 assessed as reduction in fungal growth incubated for 48 hrs by broth microdilution method; format: functional
Nakaseomyces glabratus [3] = assay: Antifungal activity against Candida glabrata ATCC 2001 assessed as reduction in fungal growth incubated for 48 hrs by broth microdilution method; format: functional
Pichia kudriavzevii [4] = assay: Antifungal activity against Candida krusei ATCC 34135 assessed as reduction in fungal growth incubated for 48 hrs by broth microdilution method; format: functional
Candida tropicalis [5] = assay: Antifungal activity against Candida tropicalis ATCC 28707 assessed as reduction in fungal growth incubated for 48 hrs by broth microdilution method; format: functional
Candida albicans [6] = assay: Antifungal activity against Candida albicans isolate 1 assessed as reduction in fungal growth incubated for 48 hrs by broth microdilution method; format: functional
Candida albicans [7] = assay: Antifungal activity against Candida albicans isolate 2 assessed as reduction in fungal growth incubated for 48 hrs by broth microdilution method; format: functional
Candida albicans [8] = assay: Antifungal activity against Candida albicans isolate 3 assessed as reduction in fungal growth incubated for 48 hrs by broth microdilution method; format: functional
Candida albicans [9] = assay: Antifungal activity against Candida albicans isolate 4 assessed as reduction in fungal growth incubated for 48 hrs by broth microdilution method; format: functional
Candida albicans [10] = assay: Antifungal activity against Candida albicans isolate 5 assessed as reduction in fungal growth incubated for 48 hrs by broth microdilution method; format: functional
Candida albicans [11] = assay: Antifungal activity against Candida albicans isolate 6 assessed as reduction in fungal growth incubated for 48 hrs by broth microdilution method; format: functional
Candida albicans [12] = assay: Antifungal activity against Candida albicans isolate 7 assessed as reduction in fungal growth incubated for 48 hrs by broth microdilution method; format: functional
Candida albicans [13] = assay: Antifungal activity against Candida albicans isolate 8 assessed as reduction in fungal growth incubated for 48 hrs by broth microdilution method; format: functional
Candida albicans [14] = assay: Antifungal activity against Candida albicans isolate 9 assessed as reduction in fungal growth incubated for 48 hrs by broth microdilution method; format: functional
Candida albicans [15] = assay: Antifungal activity against Candida albicans isolate 10 assessed as reduction in fungal growth incubated for 48 hrs by broth microdilution method; format: functional
Candida albicans [16] = assay: Antifungal activity against Candida albicans isolate 11 assessed as reduction in fungal growth incubated for 48 hrs by broth microdilution method; format: functional
Candida albicans [17] = assay: Antifungal activity against Candida albicans isolate 12 assessed as reduction in fungal growth incubated for 48 hrs by broth microdilution method; format: functional
Candida albicans [18] = assay: Antifungal activity against Candida albicans isolate 13 assessed as reduction in fungal growth incubated for 48 hrs by broth microdilution method; format: functional
Candida albicans [19] = assay: Fungicidal activity against Candida albicans ATCC 18804 assessed as fungal killing incubated for 48 hrs followed by plating on SD agar plate; format: functional; conditions: read-out: MFC99.9
Candida albicans [20] = assay: Fungicidal activity against Candida albicans ATCC 10231 assessed as fungal killing incubated for 48 hrs followed by plating on SD agar plate; format: functional; conditions: read-out: MFC99.9
Nakaseomyces glabratus [21] = assay: Fungicidal activity against Candida glabrata ATCC 2001 assessed as fungal killing incubated for 48 hrs followed by plating on SD agar plate; format: functional; conditions: read-out: MFC99.9
Pichia kudriavzevii [22] = assay: Fungicidal activity against Candida krusei ATCC 34135 assessed as fungal killing incubated for 48 hrs followed by plating on SD agar plate; format: functional; conditions: read-out: MFC99.9
Candida tropicalis [23] = assay: Fungicidal activity against Candida tropicalis ATCC 28707 assessed as fungal killing incubated for 48 hrs followed by plating on SD agar plate; format: functional; conditions: read-out: MFC99.9
Candida albicans [24] = assay: Fungicidal activity against Candida albicans isolate 1 assessed as fungal killing incubated for 48 hrs followed by plating on SD agar plate; format: functional; conditions: read-out: MFC99.9
Candida albicans [25] = assay: Fungicidal activity against Candida albicans isolate 2 assessed as fungal killing incubated for 48 hrs followed by plating on SD agar plate; format: functional; conditions: read-out: MFC99.9
Candida albicans [26] = assay: Fungicidal activity against Candida albicans isolate 3 assessed as fungal killing incubated for 48 hrs followed by plating on SD agar plate; format: functional; conditions: read-out: MFC99.9
Candida albicans [27] = assay: Fungicidal activity against Candida albicans isolate 4 assessed as fungal killing incubated for 48 hrs followed by plating on SD agar plate; format: functional; conditions: read-out: MFC99.9
Candida albicans [28] = assay: Fungicidal activity against Candida albicans isolate 5 assessed as fungal killing incubated for 48 hrs followed by plating on SD agar plate; format: functional; conditions: read-out: MFC99.9
Candida albicans [29] = assay: Fungicidal activity against Candida albicans isolate 6 assessed as fungal killing incubated for 48 hrs followed by plating on SD agar plate; format: functional; conditions: read-out: MFC99.9
Candida albicans [30] = assay: Fungicidal activity against Candida albicans isolate 7 assessed as fungal killing incubated for 48 hrs followed by plating on SD agar plate; format: functional; conditions: read-out: MFC99.9
Candida albicans [31] = assay: Fungicidal activity against Candida albicans isolate 8 assessed as fungal killing incubated for 48 hrs followed by plating on SD agar plate; format: functional; conditions: read-out: MFC99.9
Candida albicans [32] = assay: Fungicidal activity against Candida albicans isolate 9 assessed as fungal killing incubated for 48 hrs followed by plating on SD agar plate; format: functional; conditions: read-out: MFC99.9
Candida albicans [33] = assay: Fungicidal activity against Candida albicans isolate 10 assessed as fungal killing incubated for 48 hrs followed by plating on SD agar plate; format: functional; conditions: read-out: MFC99.9
Candida albicans [34] = assay: Fungicidal activity against Candida albicans isolate 11 assessed as fungal killing incubated for 48 hrs followed by plating on SD agar plate; format: functional; conditions: read-out: MFC99.9
Candida albicans [35] = assay: Fungicidal activity against Candida albicans isolate 12 assessed as fungal killing incubated for 48 hrs followed by plating on SD agar plate; format: functional; conditions: read-out: MFC99.9
Candida albicans [36] = assay: Fungicidal activity against Candida albicans isolate 13 assessed as fungal killing incubated for 48 hrs followed by plating on SD agar plate; format: functional; conditions: read-out: MFC99.9
Candida albicans [37] = assay: Fungicidal activity against Candida albicans ATCC 10231 assessed as reduction in fungal load at 7.8 ug/ml incubated for 36 hrs followed by inoculation on SD agar plate for 48 hrs by time-kill assay; format: functional, organism-based; conditions: dose 7.8 µg/ml, time 84.0 hrs
Candida albicans [38] = assay: Disruption of cell membrane in Candida albicans ATCC 10231 assessed as increase in intracellular leakage at MIC incubated for 24 hrs by UV spectrophotometric analysis; format: cell-based
Nakaseomyces glabratus [39] = assay: Disruption of cell membrane in Candida glabrata ATCC 2001 assessed as increase in intracellular leakage at MIC incubated for 24 hrs by UV spectrophotometric analysis; format: cell-based
Pichia kudriavzevii [40] = assay: Disruption of cell membrane in Candida krusei ATCC 34135 assessed as increase in intracellular leakage at MIC incubated for 24 hrs by UV spectrophotometric analysis; format: cell-based
Candida tropicalis [41] = assay: Disruption of cell membrane in Candida tropicalis ATCC 28707 assessed as increase in intracellular leakage at MIC incubated for 24 hrs by UV spectrophotometric analysis; format: cell-based
Candida albicans [42] = assay: Antifungal activity against Candida albicans ATCC 10231 assessed as reduction in fungal growth incubated for 48 hrs in presence of ergosterol by broth microdilution method; format: functional
Candida albicans [43] = assay: Antifungal activity against Candida albicans ATCC 10231 assessed as reduction in fungal growth incubated for 48 hrs in presence of sorbitol by broth microdilution method; format: functional
Nakaseomyces glabratus [44] = assay: Antifungal activity against Candida glabrata ATCC 2001 assessed as reduction in fungal growth incubated for 48 hrs in presence of ergosterol by broth microdilution method; format: functional
Nakaseomyces glabratus [45] = assay: Antifungal activity against Candida glabrata ATCC 2001 assessed as reduction in fungal growth incubated for 48 hrs in presence of sorbitol by broth microdilution method; format: functional
Pichia kudriavzevii [46] = assay: Antifungal activity against Candida krusei ATCC 34135 assessed as reduction in fungal growth incubated for 48 hrs in presence of ergosterol by broth microdilution method; format: functional
Pichia kudriavzevii [47] = assay: Antifungal activity against Candida krusei ATCC 34135 assessed as reduction in fungal growth incubated for 48 hrs in presence of sorbitol by broth microdilution method; format: functional
Candida tropicalis [48] = assay: Antifungal activity against Candida tropicalis ATCC 28707 assessed as reduction in fungal growth incubated for 48 hrs in presence of ergosterol by broth microdilution method; format: functional
Candida tropicalis [49] = assay: Antifungal activity against Candida tropicalis ATCC 28707 assessed as reduction in fungal growth incubated for 48 hrs in presence of sorbitol by broth microdilution method; format: functional
Candida albicans [50] = assay: Antifungal activity against Candida albicans ATCC 10231 assessed as inhibition of yeast to hypha morphological transition at 15.6 ug/ml measured upto 72 hrs by microscopic analysis; format: functional, organism-based; conditions: dose 15.6 µg/ml, time hrs <=72
Candida albicans [51] = assay: Antibiofilm activity against Candida albicans ATCC 10231 assessed as reduction in mature biofilm at 125 ug/ml incubated for 48 hrs by crystal violet staining based spectrophotometric analysis relative to control; format: functional
Candida albicans [52] = assay: Antibiofilm activity against Candida albicans ATCC 10231 assessed as reduction in biofilm formation at 0.24 to 7.81 ug/ml by crystal violet staining based spectrophotometric analysis; format: functional, organism-based; conditions: dose 0.24-7.81 µg/ml
Candida albicans [53] = assay: Fungicidal activity against Candida albicans ATCC 10231 assessed as reduction in fungal load at 31.25 ug/ml incubated for 12 hrs followed by inoculation on SD agar plate for 48 hrs by time-kill assay; format: functional, organism-based; conditions: dose 31.25 µg/ml, time 60.0 hrs

## CCCC[n+]1cccc(CCCOCCCCCCCCCCCCN=[N+]=[N-])c1.[I-]
Candida albicans [1]
  MIC: 7.8 µg/mL
Candida albicans [2]
  MIC: 7.8 µg/mL
Nakaseomyces glabratus [3]
  MIC: 7.8 µg/mL
Pichia kudriavzevii [4]
  MIC: 3.9 µg/mL
Candida tropicalis [5]
  MIC: 7.8 µg/mL
Candida albicans [6]
  MIC: 7.8 µg/mL
Candida albicans [7]
  MIC: 7.8 µg/mL
Candida albicans [8]
  MIC: 3.9 µg/mL
Candida albicans [9]
  MIC: 1.95 µg/mL
Candida albicans [10]
  MIC: 3.9 µg/mL
Candida albicans [11]
  MIC: 15.6 µg/mL
Candida albicans [12]
  MIC: 7.8 µg/mL
Candida albicans [13]
  MIC: 3.9 µg/mL
Candida albicans [14]
  MIC: 15.6 µg/mL
Candida albicans [15]
  MIC: 15.6 µg/mL
Candida albicans [16]
  MIC: 7.8 µg/mL
Candida albicans [17]
  MIC: 7.8 µg/mL
Candida albicans [18]
  MIC: 7.8 µg/mL
Candida albicans [19]
  MFC: 125 µg/mL
Candida albicans [20]
  MFC: 31.2 µg/mL
Nakaseomyces glabratus [21]
  MFC: 15.6 µg/mL
Pichia kudriavzevii [22]
  MFC: 3.9 µg/mL
Candida tropicalis [23]
  MFC: 15.6 µg/mL
Candida albicans [24]
  MFC: 62.5 µg/mL
Candida albicans [25]
  MFC: 7.8 µg/mL
Candida albicans [26]
  MFC: 3.9 µg/mL
Candida albicans [27]
  MFC: 3.9 µg/mL
Candida albicans [28]
  MFC: 3.9 µg/mL
Candida albicans [29]
  MFC: 31.2 µg/mL
Candida albicans [30]
  MFC: 7.8 µg/mL
Candida albicans [31]
  MFC: 7.8 µg/mL
Candida albicans [32]
  MFC: 31.2 µg/mL
Candida albicans [33]
  MFC: 31.2 µg/mL
Candida albicans [34]
  MFC: 7.8 µg/mL
Candida albicans [35]
  MFC: 7.8 µg/mL
Candida albicans [36]
  MFC: 7.8 µg/mL
Candida albicans [37]
  Activity: Active
Candida albicans [38]
  Activity: Active
Nakaseomyces glabratus [39]
  Activity: Active
Pichia kudriavzevii [40]
  Activity: Active
Candida tropicalis [41]
  Activity: Active
Candida albicans [42]
  MIC: 7.8 µg/mL
Candida albicans [43]
  MIC: 7.8 µg/mL
Nakaseomyces glabratus [44]
  MIC: 15.6 µg/mL
Nakaseomyces glabratus [45]
  MIC: 7.8 µg/mL
Pichia kudriavzevii [46]
  MIC: 3.9 µg/mL
Pichia kudriavzevii [47]
  MIC: 3.9 µg/mL
Candida tropicalis [48]
  MIC: 7.8 µg/mL
Candida tropicalis [49]
  MIC: 7.8 µg/mL
Candida albicans [50]
  Activity: Active
Candida albicans [51]
  inhibition at 125 µg/mL: 50%
Candida albicans [52]
  Activity: Active
Candida albicans [53]
  Activity: Active

## [N-]=[N+]=NCCCCCCCCCCCCOCCCc1cccnc1
Candida albicans [1]
  MIC: > 500 µg/mL
Candida albicans [2]
  MIC: > 500 µg/mL
Nakaseomyces glabratus [3]
  MIC: > 500 µg/mL
Pichia kudriavzevii [4]
  MIC: > 500 µg/mL
Candida tropicalis [5]
  MIC: 40 µg/mL (≈ 115 µM)
Candida albicans [11]
  MIC: > 500 µg/mL
Candida albicans [12]
  MIC: > 500 µg/mL
Candida albicans [13]
  MIC: > 500 µg/mL
Candida albicans [14]
  MIC: > 500 µg/mL
Candida albicans [15]
  MIC: > 500 µg/mL
Candida albicans [16]
  MIC: > 500 µg/mL
Candida albicans [17]
  MIC: > 500 µg/mL
Candida albicans [18]
  MIC: > 500 µg/mL
Candida tropicalis [23]
  MFC: 160 µg/mL (≈ 462 µM)

## CC[C@H](C)C[C@H](C)CCCCCCCCC(=O)N[C@H]1C[C@@H](O)[C@@H](NCCN)NC(=O)[C@@H]2[C@@H](O)CCN2C(=O)[C@H]([C@H](O)CCN)NC(=O)[C@H]([C@H](O)[C@@H](O)c2ccc(O)cc2)NC(=O)[C@@H]2C[C@@H](O)CN2C(=O)[C@H]([C@@H](C)O)NC1=O [CASPOFUNGIN]
Candida albicans [1]
  MIC: 4 µg/mL (≈ 3.66 µM)
Nakaseomyces glabratus [3]
  MIC: 0.5 µg/mL (≈ 0.457 µM)
Pichia kudriavzevii [4]
  MIC: 0.0625 µg/mL (≈ 0.0572 µM)
Candida tropicalis [5]
  MIC: 0.0625 µg/mL (≈ 0.0572 µM)
Candida albicans [43]
  MIC: 15.6 µg/mL
Nakaseomyces glabratus [45]
  MIC: 1 µg/mL
Pichia kudriavzevii [47]
  MIC: 0.25 µg/mL
Candida tropicalis [49]
  MIC: 0.25 µg/mL
